Experimental data as given in patent US20240116951A1, “HETEROCYCLIC COMPOUNDS AND USES THEREOF” (Kumquat Biosciences Inc., priority 2022, published 2024).

Columns and labels:
Assay type in all cases: binding
KRAS G12D = biological target: T1, KRAS G12D (Homo sapiens, UniProt P01116, G12D); assay: HTRF assay of K-Ras G12D interaction with SOS1 (PPI-HTRF); conditions: HTRF, 5 nM KRAS G12D; read-out: PPI-HTRF-5 nM KRAS G12D
T1 construct: made in house; host or cells: E. coli, e.g. BL21 (DE3)
Source text: (§1) This assay can be also used to assess a selective inhibition or reduction of signaling output of a mutant Ras protein relative to a wildtype, or relative to a different mutant Ras protein. For example, the equilibrium interaction of wildtype Kras or K-Ras mutant (e.g., wildtype or a mutant thereof including those mentioned in Example 4) with SOS1 (e.g., hSOS1) can be assessed as a proxy or an indication for a subject compound's ability to bind and inhibit Ras protein. HTRF assay detects from (i) a fluorescence resonance energy transfer (FRET) donor (e.g., antiGST-Europium) that is bound to GST-tagged K-Ras mutant to (ii) a FRET acceptor (e.g., anti-6His-XL665) bound to a His-tagged hSOS1.
(§2) The assay buffer can contain ˜5 mM HEPES pH 7.4, ˜150 mM NaCl, ˜1 mM DTT, 0.05% BSA and 0.0025% (v/v) Igepal. A Ras working solution is prepared in an assay buffer containing typically a suitable amount of the protein construct (e.g., GST-tagged K-Ras mutant) and the FRET donor (e.g., antiGST-Eu(K) from Cisbio, France). A SOS1 working solution is prepared in an assay buffer containing suitable amount of the protein construct (e.g., His-hSOS1) and the FRET acceptor (e.g., anti-6His-XL665 from Cisbio, France). A suitable amount of the protein construct will depend on the range of activity or range of IC50 values being detected or under investigation. For detecting IC50 within a range of 500 nM, the protein constructs of the same range of molarity can be utilized. […] A fixed volume of DMSO with or without test compound is transferred into a 384-well plate. Ras working solution is added to all wells of the test plate. SOS1 working solution is added to all wells except for those that are subsequently filled the inhibitor control solution. Upon incubation for about 10 minutes or longer, the fluorescence is measured with a M1000Pro plate reader (Tecan) using HTRF detection (excitation 337 nm, emission 1: 620 nm, emission 2: 665 nm). Compounds are tested in duplicates at different concentrations (for example, 10 μM, 2.5 μM, 0.63 μM, 0.16 μM, 0.04 μM, 0.01 μM test compound). The ratiometric data (i.e., emission 2 divided by emission 1) is used to calculate IC50 values against Ras using GraphPad Prism (GraphPad software). Following this general procedure, samples were tested with or without a subject compound disclosed herein including compounds exemplified in Table 1 to assess their abilities to inhibit a mutant K-Ras relative to another mutant K-Ras or wildtype K-Ras. Signaling output measured in terms of IC50 values can be obtained, a ratio of IC50 against one mutant relative to another mutant can be calculated. For instance, a selective reduction of K-Ras G12D signaling output can be evidenced by a ratio greater than one. In particular, a selective reduction of K-Ras G12D signaling relative to K-Ras WT signaling is evidenced as the ratio of IC50 (against K-Ras WT) to IC50 (against K-Ras G12D) is greater than 1.

KRAS G12S = biological target: T2, KRAS G12S (Homo sapiens, UniProt P01116, G12S); assay: HTRF assay of K-Ras G12S interaction with SOS1 (PPI-HTRF); conditions: 5 nM KRAS G12S, read-out: PPI-HTRF-5 nM KRAS G12S
T2 construct: made in house; host or cells: E. coli, e.g. BL21 (DE3)
Source text: as §1, §2

KRAS WT = biological target: T3, KRAS WT (Homo sapiens, UniProt P01116); assay: HTRF assay of wildtype K-Ras interaction with SOS1 (PPI-HTRF); conditions: HTRF, 5 nM KRAS WT; read-out: PPI-HTRF-5 nM KRAS WT
T3 construct: made in house; host or cells: E. coli, e.g. BL21 (DE3)
Source text: as §1, §2

T1 sequence (P01116 1-188 isoform P01116-2 G12D): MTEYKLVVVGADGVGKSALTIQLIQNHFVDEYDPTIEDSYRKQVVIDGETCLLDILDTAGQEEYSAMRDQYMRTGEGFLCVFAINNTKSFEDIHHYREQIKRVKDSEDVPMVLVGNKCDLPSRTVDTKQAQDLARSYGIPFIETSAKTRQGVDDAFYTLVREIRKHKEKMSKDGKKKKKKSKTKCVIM
T2 sequence (P01116 1-188 isoform P01116-2 G12S): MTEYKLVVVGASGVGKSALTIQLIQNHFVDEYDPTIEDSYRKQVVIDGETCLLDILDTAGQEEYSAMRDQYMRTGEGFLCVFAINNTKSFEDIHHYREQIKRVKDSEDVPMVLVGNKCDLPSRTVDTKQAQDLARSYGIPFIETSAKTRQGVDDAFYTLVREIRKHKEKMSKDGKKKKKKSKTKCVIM
T3 sequence (P01116 1-188 isoform P01116-2): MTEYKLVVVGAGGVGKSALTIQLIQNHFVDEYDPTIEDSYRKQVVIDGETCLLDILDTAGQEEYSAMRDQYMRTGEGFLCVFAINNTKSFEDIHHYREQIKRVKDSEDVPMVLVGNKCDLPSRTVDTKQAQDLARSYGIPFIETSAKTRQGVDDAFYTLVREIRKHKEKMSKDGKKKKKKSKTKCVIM

Row | IC50 (KRAS G12D) [µM] | IC50 (KRAS G12S) [µM] | IC50 (KRAS WT) [µM] | SMILES
1 | < 5 |  | < 5 | Nc1nc2c(-c3c(Cl)cc4c(N5CC6(CCCCN6)C5)nc(OCC56CCCN5C[C@H](F)C6)nc4c3F)ccc(F)c2s1 (stereo partly drawn) [Compound 220, 4-(6-chloro-8-fluoro-2-(((2R)-2-fluorotetrahydro-1H-pyrrolizin-7a(5H)-yl)methoxy)-4-(2,5-diazaspiro[3.5]nonan-2-yl)quinazolin-7-yl)-7-fluorobenzo[d]thiazol-2-amine]
2 |  | < 5 |  | N#CCC1CN(c2nc(OC[C@@]34CCCN3C[C@H](F)C4)nc3c(F)c(-c4ccc(F)c5sc(N)c(C#N)c45)c(Cl)cc23)CC12CCN2C(=O)n1cnc(C(F)F)n1 (stereo partly drawn) [Compound 330, (4R)-2-amino-4-(6-chloro-4-(8-(cyanomethyl)-1-(3-(difluoromethyl)-1H-1,2,4-triazole-1-carbonyl)-1,6-diazaspiro[3.4]octan-6-yl)-8-fluoro-2-(((2R,7aS)-2-fluorotetrahydro-1H-pyrrolizin-7a(5H)-yl)methoxy)quinazolin-7-yl)-7-fluorobenzo[b]thiophene-3-carbonitrile]
3 |  | < 5 |  | N#Cc1c(N)sc2c(F)ccc(-c3c(Cl)cc4c(N5CC[C@@]6(CCN6C(=O)n6cncn6)C5)nc(OC[C@@]56CCCN5C[C@H](F)C6)nc4c3F)c12 (single isomer, unassigned) [Compound 247]
4 |  | < 5 |  | N#Cc1c(N)sc2c(F)ccc(-c3c(Cl)cc4c(N5CCCC6(CCCN6)C5)nc(OC[C@@]56CCCN5C[C@H](F)C6)nc4c3F)c12 (stereo partly drawn) [Compound 252, 2-amino-4-(6-chloro-8-fluoro-2-(((2R,7aS)-2-fluorotetrahydro-1H-pyrrolizin-7a(5H)-yl)methoxy)-4-(1,7-diazaspiro[4.5]decan-7-yl)quinazolin-7-yl)-7-fluorobenzo[b]thiophene-3-carbonitrile]
5 |  | < 5 |  | Nc1nc2c(-c3c(Cl)cc4c(N5CCCC6(CCN6)C5)nc(OC[C@@]56CCCN5C[C@H](F)C6)nc4c3F)ccc(F)c2s1 (stereo partly drawn) [Compound 209, 4-(6-chloro-8-fluoro-2-(((2R,7aS)-2-fluorotetrahydro-1H-pyrrolizin-7a(5H)-yl)methoxy)-4-(1,6-diazaspiro[3.5]nonan-6-yl)quinazolin-7-yl)-7-fluorobenzo[d]thiazol-2-amine]
6 |  | < 5 |  | Cc1ncn(C(=O)N2CC[C@]23CCN(c2nc(OC[C@@]45CCCN4C[C@H](F)C5)nc4c(F)c(-c5ccc(F)c6sc(N)c(C#N)c56)c(Cl)cc24)C3)n1 [Compound 250, 2-amino-4-(6-chloro-8-fluoro-2-(((2R,7aS)-2-fluorotetrahydro-1H-pyrrolizin-7a(5H)-yl)methoxy)-4-((S)-1-(3-methyl-1H-1,2,4-triazole-1-carbonyl)-1,6-diazaspiro[3.4]octan-6-yl)quinazolin-7-yl)-7-fluorobenzo[b]thiophene-3-carbonitrile]
7 |  | < 5 |  | Cc1ncn(C(=O)N2CC[C@@]23CCN(c2nc(OC[C@@]45CCCN4C[C@H](F)C5)nc4c(F)c(-c5ccc(F)c6sc(N)c(C#N)c56)c(Cl)cc24)C3)n1 [Compound 339, 2-amino-4-(6-chloro-8-fluoro-2-(((2R,7aS)-2-fluorotetrahydro-1H-pyrrolizin-7a(5H)-yl)methoxy)-4-((R)-1-(3-methyl-1H-1,2,4-triazole-1-carbonyl)-1,6-diazaspiro[3.4]octan-6-yl)quinazolin-7-yl)-7-fluorobenzo[b]thiophene-3-carbonitrile]

More lines, now with the values behind:

Row | SMILES | IC50 (KRAS G12D) [µM] | IC50 (KRAS G12S) [µM] | IC50 (KRAS WT) [µM]
8 | CCc1ncn(C(=O)N2CCC23CCN(c2nc(OC[C@@]45CCCN4C[C@H](F)C5)nc4c(F)c(-c5ccc(F)c6sc(N)c(C#N)c56)c(Cl)cc24)C3)n1 (stereo partly drawn) [Compound 314, 2-amino-4-(6-chloro-4-(1-(3-ethyl-1H-1,2,4-triazole-1-carbonyl)-1,6-diazaspiro[3.4]octan-6-yl)-8-fluoro-2-(((2R,7aS)-2-fluorotetrahydro-1H-pyrrolizin-7a(5H)-yl)methoxy)quinazolin-7-yl)-7-fluorobenzo[b]thiophene-3-carbonitrile] | < 5 | < 5 | < 5
9 | Nc1nc2c(-c3c(Cl)cc4c(N5CC6(CNCCN6)C5)nc(OC[C@@]56CCCN5C[C@H](F)C6)nc4c3F)ccc(F)c2s1 [Compound 251, 4-(6-chloro-8-fluoro-2-(((2R,7aS)-2-fluorotetrahydro-1H-pyrrolizin-7a(5H)-yl)methoxy)-4-(2,5,8-triazaspiro[3.5]nonan-2-yl)quinazolin-7-yl)-7-fluorobenzo[d]thiazol-2-amine] | < 5 | > 5 | 
10 | N#Cc1c(N)sc2c(F)ccc(-c3c(Cl)cc4c(N5CCC6(CCN6C(=O)n6cncn6)C5)nc(OC[C@@]56CCCN5C[C@H](F)C6)nc4c3F)c12 (stereo partly drawn) [Compound 272, 4-(4-(1-(1H-1,2,4-triazole-1-carbonyl)-1,6-diazaspiro[3.4]octan-6-yl)-6-chloro-8-fluoro-2-(((2R,7aS)-2-fluorotetrahydro-1H-pyrrolizin-7a(5H)-yl)methoxy)quinazolin-7-yl)-2-amino-7-fluorobenzo[b]thiophene-3-carbonitrile] |  | < 5 | 
11 | N#Cc1c(N)sc2c(F)ccc(-c3c(Cl)cc4c(N5CCCC6(CCCN6C(=O)n6cncn6)C5)nc(OC[C@@]56CCCN5C[C@H](F)C6)nc4c3F)c12 (stereo partly drawn) [Compound 246, 4-(4-(1-(1H-1,2,4-triazole-1-carbonyl)-1,7-diazaspiro[4.5]decan-7-yl)-6-chloro-8-fluoro-2-(((2R,7aS)-2-fluorotetrahydro-1H-pyrrolizin-7a(5H)-yl)methoxy)quinazolin-7-yl)-2-amino-7-fluorobenzo[b]thiophene-3-carbonitrile] |  | < 5 | 
12 | N#Cc1c(N)sc2c(F)ccc(-c3c(Cl)cc4c(N5CC6(CCN6C(=O)n6cncn6)CC5COC(F)F)nc(OC[C@@]56CCCN5C[C@H](F)C6)nc4c3F)c12 (stereo partly drawn) [Compound 348, 2-amino-4-(6-chloro-4-(7-((difluoromethoxy)methyl)-1-(1H-1,2,4-triazole-1-carbonyl)-1,6-diazaspiro[3.4]octan-6-yl)-8-fluoro-2-(((2R,7aS)-2-fluorotetrahydro-1H-pyrrolizin-7a(5H)-yl)methoxy)quinazolin-7-yl)-7-fluorobenzo[b]thiophene-3-carbonitrile] |  | < 5 | 
13 | C[C@H](Oc1nc(N2CC[C@@]3(CCN3C(=O)n3cncn3)C2)c2cc(Cl)c(-c3ccc(F)c4sc(N)c(C#N)c34)c(F)c2n1)[C@@H]1CCCN1C (single isomer, unassigned) [Compound 301] |  | < 5 | 
14 | N#Cc1c(N)sc2c(F)ccc(-c3c(Cl)cc4c(N5CCCC6(CCN6)C5)nc(OC[C@@]56CCCN5C[C@H](F)C6)nc4c3F)c12 (stereo partly drawn) [Compound 260, 2-amino-4-(6-chloro-8-fluoro-2-(((2R,7aS)-2-fluorotetrahydro-1H-pyrrolizin-7a(5H)-yl)methoxy)-4-(1,6-diazaspiro[3.5]nonan-6-yl)quinazolin-7-yl)-7-fluorobenzo[b]thiophene-3-carbonitrile] |  | < 5 | 
15 | N#Cc1c(N)sc2c(F)ccc(-c3c(Cl)cc4c(N5CCCCC6(CCCN6C(=O)n6cncn6)C5)nc(OC[C@@]56CCCN5C[C@H](F)C6)nc4c3F)c12 (stereo partly drawn) [Compound 231, 4-(4-(1-(1H-1,2,4-triazole-1-carbonyl)-1,7-diazaspiro[4.6]undecan-7-yl)-6-chloro-8-fluoro-2-(((2R,7aS)-2-fluorotetrahydro-1H-pyrrolizin-7a(5H)-yl)methoxy)quinazolin-7-yl)-2-amino-7-fluorobenzo[b]thiophene-3-carbonitrile] |  | < 5 | 
